In PMC10104807, “Modulation of tau tubulin kinases (TTBK1 and TTBK2) impacts ciliogenesis” (Scientific Reports, 2023):
Like-named read-outs stand apart in the source and are kept apart here.

Tests used:
NLuc-TTBK1 = target: T1, NLuc-TTBK1 (Homo sapiens, UniProt Q5TCY1); assay: TTBK1 NanoBRET cellular target engagement assay in HEK293 cells; type: cell-based; conditions: 2 μM tracer 29
T1 construct: host or cells: HEK293
Description: (§1) HEK293 cells were transfected with constructs of TTBK1 or TTBK2 tagged with NLuc on the N- or C-terminus as previously described[43] Constructs for NanoBRET measurements of TTBK1 (NLuc-TTBK1 and TTBK1-NLuc) and TTBK2 (NLuc-TTBK2 and TTBK2-NLuc) were kindly provided by Promega. NLuc orientations used in the respective assays are indicated. Cells were plated in 96-well tissue culture treated plates (Corning 3917) at a cell density of 2 × 10^5 cells/mL, with a total volume of 100 μL per well in DMEM. […] NanoBRET plates were read after addition of 50 μL of a stock solution (3X) containing NanoBRET NanoGlo substrate (Promega N2161), extracellular NanoLuc inhibitor (Promega N2161) and Opti-MEM. For a 96-well plate the 3X stock solution was prepared with 30 μL of NanoBRET NanoGlo substrate, 10 μL of extracellular NanoLuc inhibitor, and 4960 μL of Opti-MEM without phenol red. […] HEK293 cells were transfected with NLuc-TTBK1 or NLuc-TTBK2. […] One biological replicate was plotted in GraphPad Prism with log[inhibitor] vs. response (three parameters) and included in Fig. 3C. NanoBRET assays were carried out in dose-response format as described previously. NLuc orientations used in the respective assays are as follows: NLuc-TTBK1, NLuc-TTBK2, and PIP4K2C-NLuc (for PI5[…]γ). […] Data are reported as IC50 ± standard error mean (SEM). For PI5[…]γ, 9 was tested in 12-point dose-response format with a top concentration of 10 μM (data in Table S2). One biological replicate was plotted in GraphPad Prism with log[inhibitor] vs. response (three parameters).

NLuc-TTBK2 = target: T2, NLuc-TTBK2 (Homo sapiens, UniProt Q6IQ55); assay: TTBK2 NanoBRET cellular target engagement assay in HEK293 cells; type: cell-based
T2 construct: host or cells: HEK293
Description: as §1

[1] = tested on: 403 wild-type (WT) human kinases; assay: DiscoverX scanMAX kinome-wide selectivity; type: binding; conditions: for # scanMAX kinases with PoC < 10: 1 μM; for S10(1 μM): share of 403 WT human kinases with PoC < 10 at 1 μM
Description: (§2) This panel includes 403 wild-type (WT) human kinases but not TTBK1/2. […] Substantial overlap between the MRC and DiscoverX scanMAX kinase panels allows the comparison of results for the same kinases in two different assay formats (enzymatic versus binding, respectively) at the same concentration. Selectivity results are included in two columns within Table 1. […] The rightmost column converts this selectivity score into the number of kinases with a PoC < 10 in the scanMAX panel.
(§3) The Eurofins DiscoverX Corporation scanMAX assay platform was employed to assess the selectivity of specific analogs at a single concentration (1 µM). As described previously, this assay platform profiles a compound against 403 wild-type human kinases and delivers percent of control (PoC) values. These percent of control values are included in Table 1 and corresponding kinome tree diagrams as well as tables for each analog included in Fig. S1.

MAP4K2 = target: T3, MAP4K2 (Homo sapiens, UniProt Q12851); assay: DiscoverX scanMAX binding assay; conditions: for MAP4K2 % control at 1000nM: 1 μM
T3 construct: purchased Eurofins (radiometric) / Eurofins DiscoverX scanMAX / Reaction Biology / SignalChem
T3 sequence (Q12851 1-820): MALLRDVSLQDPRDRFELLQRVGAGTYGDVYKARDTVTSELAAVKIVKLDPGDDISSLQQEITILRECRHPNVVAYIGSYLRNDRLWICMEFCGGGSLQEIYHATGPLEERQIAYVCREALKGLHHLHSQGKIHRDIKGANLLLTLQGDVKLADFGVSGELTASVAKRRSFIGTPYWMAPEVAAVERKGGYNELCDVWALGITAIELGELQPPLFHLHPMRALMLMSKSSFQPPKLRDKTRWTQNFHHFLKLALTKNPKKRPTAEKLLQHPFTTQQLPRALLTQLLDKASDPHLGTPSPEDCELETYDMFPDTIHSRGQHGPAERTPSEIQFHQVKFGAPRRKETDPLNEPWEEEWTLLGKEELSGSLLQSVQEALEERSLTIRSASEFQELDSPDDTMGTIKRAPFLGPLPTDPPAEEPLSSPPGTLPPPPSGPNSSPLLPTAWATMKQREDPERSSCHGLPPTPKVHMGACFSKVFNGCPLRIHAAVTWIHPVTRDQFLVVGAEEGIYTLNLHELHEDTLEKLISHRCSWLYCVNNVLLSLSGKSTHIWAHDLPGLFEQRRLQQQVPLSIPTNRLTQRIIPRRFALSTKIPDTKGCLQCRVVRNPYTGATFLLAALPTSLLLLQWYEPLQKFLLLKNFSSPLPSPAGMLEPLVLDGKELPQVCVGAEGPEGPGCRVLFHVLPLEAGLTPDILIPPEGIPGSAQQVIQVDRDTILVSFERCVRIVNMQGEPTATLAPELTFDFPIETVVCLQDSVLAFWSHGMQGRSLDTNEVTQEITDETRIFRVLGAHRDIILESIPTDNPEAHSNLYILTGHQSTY
Description: as §2, §3

PIP5K2C = target: T4, PIP5K2C (Homo sapiens, UniProt Q8TBX8); assay: DiscoverX scanMAX binding assay; conditions: 1 μM
T4 construct: purchased Eurofins (radiometric) / Eurofins DiscoverX scanMAX / Reaction Biology / SignalChem
T4 sequence (Q8TBX8 1-421): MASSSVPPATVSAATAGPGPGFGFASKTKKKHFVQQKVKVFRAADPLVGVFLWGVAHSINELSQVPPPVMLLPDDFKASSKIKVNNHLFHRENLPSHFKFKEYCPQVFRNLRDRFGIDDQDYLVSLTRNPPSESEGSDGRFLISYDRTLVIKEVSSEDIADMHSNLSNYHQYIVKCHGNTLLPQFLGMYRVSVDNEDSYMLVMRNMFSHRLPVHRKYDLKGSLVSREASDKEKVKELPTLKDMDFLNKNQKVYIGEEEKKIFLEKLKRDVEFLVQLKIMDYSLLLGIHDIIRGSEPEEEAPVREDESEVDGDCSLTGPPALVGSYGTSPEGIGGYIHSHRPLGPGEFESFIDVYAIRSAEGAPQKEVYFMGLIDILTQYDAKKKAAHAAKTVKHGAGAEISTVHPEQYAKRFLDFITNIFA
Description: as §2, §3

[2] = intact HEK293 cells, read-out: TTBK1 intact cell NB IC50
[3] = permeabilized HEK293 cells (digitonin), read-out: TTBK1 permeabilized cell NB IC50
[4] = intact HEK293 cells, 2 μM tracer 29, read-out: TTBK2 intact cell NB IC50
[5] = permeabilized HEK293 cells (digitonin), 2 μM tracer 29, read-out: TTBK2 permeabilized cell NB IC50

T1 sequence (Q5TCY1 whole entry): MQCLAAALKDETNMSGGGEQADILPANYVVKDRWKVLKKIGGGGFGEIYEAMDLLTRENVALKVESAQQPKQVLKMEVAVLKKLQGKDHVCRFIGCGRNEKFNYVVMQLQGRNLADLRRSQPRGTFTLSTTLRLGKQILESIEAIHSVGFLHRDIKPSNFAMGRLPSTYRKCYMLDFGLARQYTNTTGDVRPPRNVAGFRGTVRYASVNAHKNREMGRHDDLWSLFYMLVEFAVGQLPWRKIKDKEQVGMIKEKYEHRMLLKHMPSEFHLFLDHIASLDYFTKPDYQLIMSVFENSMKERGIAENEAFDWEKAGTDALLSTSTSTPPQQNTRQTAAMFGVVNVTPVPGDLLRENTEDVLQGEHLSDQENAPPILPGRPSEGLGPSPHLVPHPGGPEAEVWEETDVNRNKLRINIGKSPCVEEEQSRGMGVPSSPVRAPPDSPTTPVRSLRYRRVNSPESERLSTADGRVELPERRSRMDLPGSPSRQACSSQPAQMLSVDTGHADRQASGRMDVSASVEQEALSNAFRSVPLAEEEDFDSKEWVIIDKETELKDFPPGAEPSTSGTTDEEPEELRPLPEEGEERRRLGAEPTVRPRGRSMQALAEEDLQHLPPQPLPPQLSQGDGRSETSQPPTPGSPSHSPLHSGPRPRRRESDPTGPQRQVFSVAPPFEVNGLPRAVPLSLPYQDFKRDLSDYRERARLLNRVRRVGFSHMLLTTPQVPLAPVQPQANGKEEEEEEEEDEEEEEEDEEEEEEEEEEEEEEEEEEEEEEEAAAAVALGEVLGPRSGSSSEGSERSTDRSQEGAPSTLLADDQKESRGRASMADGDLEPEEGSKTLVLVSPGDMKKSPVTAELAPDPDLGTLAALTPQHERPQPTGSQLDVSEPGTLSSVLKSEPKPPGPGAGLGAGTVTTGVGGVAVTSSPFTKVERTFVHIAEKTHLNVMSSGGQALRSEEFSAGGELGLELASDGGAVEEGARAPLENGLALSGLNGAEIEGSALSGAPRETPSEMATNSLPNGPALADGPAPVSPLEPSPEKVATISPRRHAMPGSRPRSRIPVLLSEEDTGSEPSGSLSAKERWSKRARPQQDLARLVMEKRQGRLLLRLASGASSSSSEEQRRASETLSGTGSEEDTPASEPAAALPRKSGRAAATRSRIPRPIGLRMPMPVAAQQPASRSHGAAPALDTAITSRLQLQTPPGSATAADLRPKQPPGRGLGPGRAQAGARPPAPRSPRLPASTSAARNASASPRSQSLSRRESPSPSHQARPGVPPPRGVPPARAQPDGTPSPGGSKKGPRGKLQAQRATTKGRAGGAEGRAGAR
T2 sequence (Q6IQ55 whole entry): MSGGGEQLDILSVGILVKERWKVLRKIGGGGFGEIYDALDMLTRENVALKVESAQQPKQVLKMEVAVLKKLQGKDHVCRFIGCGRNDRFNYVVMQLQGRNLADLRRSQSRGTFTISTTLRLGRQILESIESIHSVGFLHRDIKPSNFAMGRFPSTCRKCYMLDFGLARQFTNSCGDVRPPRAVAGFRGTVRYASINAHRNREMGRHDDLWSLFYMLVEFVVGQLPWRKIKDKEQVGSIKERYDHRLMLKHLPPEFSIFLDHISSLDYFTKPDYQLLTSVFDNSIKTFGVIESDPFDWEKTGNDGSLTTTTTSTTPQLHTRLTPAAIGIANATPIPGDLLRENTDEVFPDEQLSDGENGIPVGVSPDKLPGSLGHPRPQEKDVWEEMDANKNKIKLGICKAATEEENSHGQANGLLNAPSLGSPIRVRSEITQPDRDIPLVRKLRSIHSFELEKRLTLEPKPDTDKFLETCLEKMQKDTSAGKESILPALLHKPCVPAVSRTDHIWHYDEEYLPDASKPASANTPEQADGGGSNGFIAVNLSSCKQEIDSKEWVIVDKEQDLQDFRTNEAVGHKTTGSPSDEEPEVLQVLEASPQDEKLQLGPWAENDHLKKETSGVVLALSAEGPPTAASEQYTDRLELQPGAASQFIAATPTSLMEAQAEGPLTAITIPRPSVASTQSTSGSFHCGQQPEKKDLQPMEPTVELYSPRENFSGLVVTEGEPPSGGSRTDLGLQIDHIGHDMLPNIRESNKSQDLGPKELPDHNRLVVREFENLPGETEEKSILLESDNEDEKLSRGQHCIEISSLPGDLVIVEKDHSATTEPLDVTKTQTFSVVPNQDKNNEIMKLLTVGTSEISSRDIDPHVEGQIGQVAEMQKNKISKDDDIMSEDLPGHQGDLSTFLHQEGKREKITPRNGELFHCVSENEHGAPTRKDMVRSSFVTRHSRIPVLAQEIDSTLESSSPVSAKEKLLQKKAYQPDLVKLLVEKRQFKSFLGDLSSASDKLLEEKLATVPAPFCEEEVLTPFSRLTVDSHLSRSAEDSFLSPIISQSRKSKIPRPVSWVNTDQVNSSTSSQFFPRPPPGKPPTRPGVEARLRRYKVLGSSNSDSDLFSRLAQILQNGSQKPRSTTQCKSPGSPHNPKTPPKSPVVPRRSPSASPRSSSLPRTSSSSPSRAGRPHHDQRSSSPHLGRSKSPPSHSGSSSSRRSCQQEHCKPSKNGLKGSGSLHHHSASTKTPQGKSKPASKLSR

Row | IC50 (NLuc-TTBK1; [2]) [µM] | IC50 (NLuc-TTBK1; [3]) [µM] | SMILES | IC50 (NLuc-TTBK2; [4]) [µM] | IC50 (NLuc-TTBK2; [5]) [µM] | # scanMAX kinases with PoC < 10 [1] | S10(1 μM) [1] | IC50 (NLuc-TTBK2; tracer titration experiment, 2 μM tracer 29, n = 1, read-out: NL-TTBK2 IC50, tracer titration) [µM] | MAP4K2 % control at 1000nM (MAP4K2) [% control] | PIP5K2C (PI5P4Kγ) % control at 1000nM / DiscoverX PoC value (PIP5K2C) [% control] | percent of control (binding) at 1 µM (MAP4K2; read-out: MAP4K2 % control at 1000nM) [%]
1 | > 30 | 19 | CC(C)(O)C#Cc1ccc2[nH]c3c(c2c1)-c1nc(N)ncc1CCCC3 [Compound 2] | > 30 | 17 |  |  |  |  |  | 
2 |  |  | CC(C)(O)C#Cc1ccc2[nH]cc(-c3ccnc(N)n3)c2c1 [Compound 3] | 11.7 ± 3.7 | 2.52 ± 0.62 | 34 | 0.084 | 6.9 | 1.6 | 0.2 | 
3 |  |  | CC(C)(O)C#Cc1ccc2[nH]c3c(c2c1)-c1nc(N)ncc1CCC3 [AMG28, reference compound] |  |  | 21 | 0.052 |  |  | 3.1 | 1.3
4 | > 30 | > 30 | COC(C)(C)C#Cc1ccc2[nH]c3c(c2c1)-c1nc(N)ncc1CCC3 [Compound 11] | > 30 | > 30 |  |  |  |  |  | 

Row | SMILES | IC50 (NLuc-TTBK1; [2]) [µM] | IC50 (NLuc-TTBK1; [3]) [µM] | IC50 (NLuc-TTBK2; [4]) [µM] | IC50 (NLuc-TTBK2; [5]) [µM] | # scanMAX kinases with PoC < 10 [1] | S10(1 μM) [1] | IC50 (NLuc-TTBK2; tracer titration experiment, 2 μM tracer 29, n = 1, read-out: NL-TTBK2 IC50, tracer titration) [µM] | MAP4K2 % control at 1000nM (MAP4K2) [% control] | PIP5K2C (PI5P4Kγ) % control at 1000nM / DiscoverX PoC value (PIP5K2C) [% control] | percent of control (binding) at 1 µM (MAP4K2; read-out: MAP4K2 % control at 1000nM) [%]
5 | CC(C)(O)C#Cc1ccc2[nH]c3c(c2c1)-c1nc(N)ncc1CC3 [Compound 1] | > 30 | 2.5 | 16 | 3.6 | 20 | 0.05 |  | 2 | 0 | 
